Measurements taken from ChEMBL document CHEMBL1926576, “Fragment based lead discovery of small molecule inhibitors for the EPHA4 receptor tyrosine kinase” (Eur J Med Chem, 2012).

How the values were obtained:
[1] = biological target: Serine/threonine-protein kinase pim-1 (Homo sapiens) (UniProt P11309); assay: Inhibition of PIM1 assessed as residual activity at 10 uM using [33P-ATP] by radiometric filter binding assay
[2] = Inhibition of PKA assessed as residual activity at 10 uM using [33P-ATP] by radiometric filter binding assay
[3] = biological target: Homeodomain-interacting protein kinase 1 (Homo sapiens) (UniProt Q86Z02); assay: Inhibition of HIPK1 assessed as residual activity at 10 uM using [33P-ATP] by radiometric filter binding assay
[4] = biological target: Serine/threonine-protein kinase 33 (Homo sapiens) (UniProt Q9BYT3); assay: Inhibition of STK33 assessed as residual activity at 10 uM using [33P-ATP] by radiometric filter binding assay
[5] = Inhibition of AMPK assessed as residual activity at 10 uM using [33P-ATP] by radiometric filter binding assay
[6] = biological target: Serine/threonine-protein kinase MARK1 (Homo sapiens) (UniProt Q9P0L2); assay: Inhibition of MARK1 assessed as residual activity at 10 uM using [33P-ATP] by radiometric filter binding assay
[7] = biological target: MAP/microtubule affinity-regulating kinase 4 (Homo sapiens) (UniProt Q96L34); assay: Inhibition of MARK4 assessed as residual activity at 10 uM using [33P-ATP] by radiometric filter binding assay
[8] = biological target: RAC-alpha serine/threonine-protein kinase (Homo sapiens) (UniProt P31749); assay: Inhibition of PKBalpha assessed as residual activity at 10 uM using [33P-ATP] by radiometric filter binding assay
[9] = biological target: MAP kinase-interacting serine/threonine-protein kinase 2 (Homo sapiens) (UniProt Q9HBH9); assay: Inhibition of MNK2 assessed as residual activity at 10 uM using [33P-ATP] by radiometric filter binding assay
[10] = biological target: Calcium/calmodulin-dependent protein kinase kinase 2 (Homo sapiens) (UniProt Q96RR4); assay: Inhibition of CAMKKbeta assessed as residual activity at 10 uM using [33P-ATP] by radiometric filter binding assay
[11] = biological target: Serine/threonine-protein kinase TBK1 (Homo sapiens) (UniProt Q9UHD2); assay: Inhibition of TBK1 assessed as residual activity at 10 uM using [33P-ATP] by radiometric filter binding assay
[12] = biological target: Mitogen-activated protein kinase kinase kinase 9 (Homo sapiens) (UniProt P80192); assay: Inhibition of MLK1 assessed as residual activity at 10 uM using [33P-ATP] by radiometric filter binding assay
[13] = biological target: Myosin light chain kinase, smooth muscle (Homo sapiens) (UniProt Q15746); assay: Inhibition of SmMLCK assessed as residual activity at 10 uM using [33P-ATP] by radiometric filter binding assay
[14] = biological target: High affinity nerve growth factor receptor (Homo sapiens) (UniProt P04629); assay: Inhibition of TrkA assessed as residual activity at 10 uM using [33P-ATP] by radiometric filter binding assay
[15] = biological target: RAC-beta serine/threonine-protein kinase (Homo sapiens) (UniProt P31751); assay: Inhibition of PKBbeta assessed as residual activity at 10 uM using [33P-ATP] by radiometric filter binding assay
[16] = biological target: Mitogen-activated protein kinase 14 (Homo sapiens) (UniProt Q16539); assay: Inhibition of p38alpha MAPK assessed as residual activity at 10 uM using [33P-ATP] by radiometric filter binding assay
[17] = biological target: Inhibitor of nuclear factor kappa-B kinase subunit epsilon (Homo sapiens) (UniProt Q14164); assay: Inhibition of IKKepsilon assessed as residual activity at 10 uM using [33P-ATP] by radiometric filter binding assay
[18] = biological target: Serine/threonine-protein kinase 16 (Homo sapiens) (UniProt O75716); assay: Inhibition of MPSK1 assessed as residual activity at 10 uM using [33P-ATP] by radiometric filter binding assay
[19] = biological target: Serine/threonine-protein kinase Nek2 (Homo sapiens) (UniProt P51955); assay: Inhibition of NEK2alpha assessed as residual activity at 10 uM using [33P-ATP] by radiometric filter binding assay
[20] = biological target: Interleukin-1 receptor-associated kinase 1 (Homo sapiens) (UniProt P51617); assay: Inhibition of IRAK1 assessed as residual activity at 10 uM using [33P-ATP] by radiometric filter binding assay
[21] = biological target: Ephrin type-B receptor 1 (Homo sapiens) (UniProt P54762); assay: Inhibition of EPHB1 assessed as residual activity at 10 uM using [33P-ATP] by radiometric filter binding assay
[22] = biological target: Serine/threonine-protein kinase Sgk1 (Homo sapiens) (UniProt O00141); assay: Inhibition of SGK1 assessed as residual activity at 10 uM using [33P-ATP] by radiometric filter binding assay
[23] = biological target: Serine/threonine-protein kinase TAO1 (Homo sapiens) (UniProt Q7L7X3); assay: Inhibition of TAO1 assessed as residual activity at 10 uM using [33P-ATP] by radiometric filter binding assay
Ephrin type-A receptor 4 = Ephrin type-A receptor 4 (Homo sapiens, UniProt P54764); assay: Inhibition of his-tagged EPHA4-mediated poly(Glu,Tyr) phosphorylation after 75 mins using E4:Y1 as substrate by fluorescence assay
[24] = biological target: Tyrosine-protein kinase SYK (Homo sapiens) (UniProt P43405); assay: Inhibition of SYK assessed as residual activity at 10 uM using [33P-ATP] by radiometric filter binding assay

Chain of Serine/threonine-protein kinase 33 (Homo sapiens) (Q9BYT3 whole entry, looked up): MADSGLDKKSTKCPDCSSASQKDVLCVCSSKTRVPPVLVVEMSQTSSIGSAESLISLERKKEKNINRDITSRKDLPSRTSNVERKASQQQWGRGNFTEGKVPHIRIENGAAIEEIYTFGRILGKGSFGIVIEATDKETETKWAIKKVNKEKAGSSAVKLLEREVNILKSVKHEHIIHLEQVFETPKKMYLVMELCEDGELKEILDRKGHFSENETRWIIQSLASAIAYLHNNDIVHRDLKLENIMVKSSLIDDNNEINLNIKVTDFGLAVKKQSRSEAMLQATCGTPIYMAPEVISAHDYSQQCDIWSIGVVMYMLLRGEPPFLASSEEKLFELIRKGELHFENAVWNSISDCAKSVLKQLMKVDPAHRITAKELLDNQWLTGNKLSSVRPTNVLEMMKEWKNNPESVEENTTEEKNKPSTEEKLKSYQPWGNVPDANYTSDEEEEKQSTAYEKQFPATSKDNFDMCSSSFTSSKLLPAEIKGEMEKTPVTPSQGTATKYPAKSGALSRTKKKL
Chain of Serine/threonine-protein kinase Nek2 (Homo sapiens) (P51955 whole entry): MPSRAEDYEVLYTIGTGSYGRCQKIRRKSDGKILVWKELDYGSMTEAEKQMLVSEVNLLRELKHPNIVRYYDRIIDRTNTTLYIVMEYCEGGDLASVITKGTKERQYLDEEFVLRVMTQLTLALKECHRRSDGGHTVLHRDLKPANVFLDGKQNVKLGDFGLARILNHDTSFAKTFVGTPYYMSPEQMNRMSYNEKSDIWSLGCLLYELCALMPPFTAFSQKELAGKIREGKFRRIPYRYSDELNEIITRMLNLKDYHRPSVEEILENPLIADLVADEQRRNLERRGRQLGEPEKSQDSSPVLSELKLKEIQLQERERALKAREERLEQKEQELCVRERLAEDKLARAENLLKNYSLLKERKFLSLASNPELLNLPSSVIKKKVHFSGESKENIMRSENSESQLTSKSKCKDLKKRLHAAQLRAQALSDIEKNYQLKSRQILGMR
Chain of Serine/threonine-protein kinase 16 (Homo sapiens) (O75716 whole entry, looked up): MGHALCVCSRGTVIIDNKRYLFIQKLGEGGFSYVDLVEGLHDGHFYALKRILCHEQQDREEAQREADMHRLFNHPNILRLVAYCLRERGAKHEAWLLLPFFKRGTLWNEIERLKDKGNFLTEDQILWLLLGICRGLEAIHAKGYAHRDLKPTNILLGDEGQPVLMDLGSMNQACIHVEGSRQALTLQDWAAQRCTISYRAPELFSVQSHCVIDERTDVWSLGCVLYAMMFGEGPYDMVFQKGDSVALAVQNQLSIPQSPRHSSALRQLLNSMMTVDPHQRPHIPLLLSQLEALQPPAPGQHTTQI
Chain of Ephrin type-A receptor 4 (P54764 whole entry): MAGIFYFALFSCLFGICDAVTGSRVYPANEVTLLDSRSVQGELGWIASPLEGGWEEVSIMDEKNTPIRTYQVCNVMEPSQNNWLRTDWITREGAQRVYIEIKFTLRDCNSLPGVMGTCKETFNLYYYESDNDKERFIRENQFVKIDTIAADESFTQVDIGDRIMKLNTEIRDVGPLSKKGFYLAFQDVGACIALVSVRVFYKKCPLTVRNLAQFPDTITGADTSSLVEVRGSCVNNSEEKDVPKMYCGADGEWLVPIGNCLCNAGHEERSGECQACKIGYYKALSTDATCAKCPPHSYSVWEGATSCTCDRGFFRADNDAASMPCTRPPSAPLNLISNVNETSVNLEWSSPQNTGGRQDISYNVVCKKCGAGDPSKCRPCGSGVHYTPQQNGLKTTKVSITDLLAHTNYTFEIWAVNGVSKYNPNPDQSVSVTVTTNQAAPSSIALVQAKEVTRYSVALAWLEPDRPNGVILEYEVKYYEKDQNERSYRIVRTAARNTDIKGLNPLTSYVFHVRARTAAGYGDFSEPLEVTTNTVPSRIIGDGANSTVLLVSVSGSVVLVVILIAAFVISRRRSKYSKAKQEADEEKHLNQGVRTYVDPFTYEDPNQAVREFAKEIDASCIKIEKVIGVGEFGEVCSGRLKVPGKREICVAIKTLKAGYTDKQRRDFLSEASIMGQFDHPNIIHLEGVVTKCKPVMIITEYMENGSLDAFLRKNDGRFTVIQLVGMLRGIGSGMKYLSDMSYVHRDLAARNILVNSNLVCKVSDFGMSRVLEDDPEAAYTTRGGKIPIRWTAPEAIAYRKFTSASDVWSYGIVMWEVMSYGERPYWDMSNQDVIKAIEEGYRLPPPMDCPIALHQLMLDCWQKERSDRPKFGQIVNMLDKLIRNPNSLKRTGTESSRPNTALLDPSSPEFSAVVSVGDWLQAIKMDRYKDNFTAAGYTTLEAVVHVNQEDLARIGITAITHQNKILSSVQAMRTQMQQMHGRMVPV
Chain of Mitogen-activated protein kinase 14 (Homo sapiens) (Q16539 whole entry): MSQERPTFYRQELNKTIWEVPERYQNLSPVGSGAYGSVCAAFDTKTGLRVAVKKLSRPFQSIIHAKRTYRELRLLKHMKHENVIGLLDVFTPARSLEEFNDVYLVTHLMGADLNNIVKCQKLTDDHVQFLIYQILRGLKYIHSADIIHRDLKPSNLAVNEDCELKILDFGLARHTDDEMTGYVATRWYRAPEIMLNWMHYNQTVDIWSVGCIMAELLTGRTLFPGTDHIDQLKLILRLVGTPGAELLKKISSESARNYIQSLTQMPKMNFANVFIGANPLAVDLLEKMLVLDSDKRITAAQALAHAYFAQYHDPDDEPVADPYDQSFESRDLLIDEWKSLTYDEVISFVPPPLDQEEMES
Chain of Calcium/calmodulin-dependent protein kinase kinase 2 (Homo sapiens) (Q96RR4 2-588 limits assumed): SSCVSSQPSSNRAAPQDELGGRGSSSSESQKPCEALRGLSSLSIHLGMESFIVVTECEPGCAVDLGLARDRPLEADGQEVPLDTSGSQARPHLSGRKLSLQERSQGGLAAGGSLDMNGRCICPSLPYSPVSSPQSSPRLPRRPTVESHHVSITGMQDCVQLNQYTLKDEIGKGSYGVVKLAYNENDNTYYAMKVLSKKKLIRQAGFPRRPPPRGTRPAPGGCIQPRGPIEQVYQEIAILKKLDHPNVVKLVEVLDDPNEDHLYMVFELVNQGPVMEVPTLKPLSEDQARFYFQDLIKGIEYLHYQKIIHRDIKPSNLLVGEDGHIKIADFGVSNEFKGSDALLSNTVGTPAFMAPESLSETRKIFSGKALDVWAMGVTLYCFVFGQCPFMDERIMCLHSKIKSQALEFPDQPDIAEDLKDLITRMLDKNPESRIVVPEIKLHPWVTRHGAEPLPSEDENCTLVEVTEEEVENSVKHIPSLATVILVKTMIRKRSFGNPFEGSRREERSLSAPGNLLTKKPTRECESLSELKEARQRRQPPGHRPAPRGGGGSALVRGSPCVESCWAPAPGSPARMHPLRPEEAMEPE
Chain of Inhibitor of nuclear factor kappa-B kinase subunit epsilon (Homo sapiens) (Q14164 whole entry): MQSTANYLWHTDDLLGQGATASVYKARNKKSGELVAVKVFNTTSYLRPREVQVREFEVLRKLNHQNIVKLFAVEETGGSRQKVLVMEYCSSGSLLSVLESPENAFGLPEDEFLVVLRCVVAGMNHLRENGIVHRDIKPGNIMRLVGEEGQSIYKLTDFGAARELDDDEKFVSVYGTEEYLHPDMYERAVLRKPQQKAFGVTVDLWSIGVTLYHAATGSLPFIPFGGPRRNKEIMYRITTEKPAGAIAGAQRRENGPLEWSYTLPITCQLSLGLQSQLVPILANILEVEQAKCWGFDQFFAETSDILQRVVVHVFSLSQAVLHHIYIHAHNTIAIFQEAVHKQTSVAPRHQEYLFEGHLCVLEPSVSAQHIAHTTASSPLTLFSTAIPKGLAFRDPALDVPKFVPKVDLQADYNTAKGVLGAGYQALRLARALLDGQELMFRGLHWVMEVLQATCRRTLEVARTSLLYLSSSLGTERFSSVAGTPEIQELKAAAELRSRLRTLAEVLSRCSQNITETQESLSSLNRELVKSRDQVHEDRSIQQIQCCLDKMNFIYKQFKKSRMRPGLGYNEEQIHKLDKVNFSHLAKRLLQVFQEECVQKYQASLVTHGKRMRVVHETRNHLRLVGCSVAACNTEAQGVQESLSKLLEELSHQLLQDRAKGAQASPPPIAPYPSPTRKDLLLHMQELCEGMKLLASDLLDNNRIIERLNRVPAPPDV
Chain of Serine/threonine-protein kinase MARK1 (Homo sapiens) (Q9P0L2 whole entry, looked up): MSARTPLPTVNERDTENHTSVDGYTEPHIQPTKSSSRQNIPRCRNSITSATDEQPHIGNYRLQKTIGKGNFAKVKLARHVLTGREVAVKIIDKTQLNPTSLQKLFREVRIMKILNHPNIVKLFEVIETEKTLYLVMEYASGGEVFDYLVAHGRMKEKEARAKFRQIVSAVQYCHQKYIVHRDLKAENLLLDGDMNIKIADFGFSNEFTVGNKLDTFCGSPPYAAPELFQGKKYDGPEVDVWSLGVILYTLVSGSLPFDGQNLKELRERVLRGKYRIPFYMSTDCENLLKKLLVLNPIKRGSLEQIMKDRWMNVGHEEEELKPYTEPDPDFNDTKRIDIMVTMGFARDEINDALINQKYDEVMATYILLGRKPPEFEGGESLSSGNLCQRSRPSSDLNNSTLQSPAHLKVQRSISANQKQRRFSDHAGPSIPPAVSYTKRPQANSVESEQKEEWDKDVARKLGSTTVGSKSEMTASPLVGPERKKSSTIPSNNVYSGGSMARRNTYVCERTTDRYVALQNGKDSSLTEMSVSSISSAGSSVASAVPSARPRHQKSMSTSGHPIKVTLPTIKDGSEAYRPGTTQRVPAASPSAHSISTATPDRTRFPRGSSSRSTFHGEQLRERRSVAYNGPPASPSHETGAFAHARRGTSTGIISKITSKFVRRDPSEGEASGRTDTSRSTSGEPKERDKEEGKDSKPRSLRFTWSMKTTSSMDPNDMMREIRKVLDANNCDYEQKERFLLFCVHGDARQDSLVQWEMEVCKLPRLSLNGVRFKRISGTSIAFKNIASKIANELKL
Chain of Serine/threonine-protein kinase pim-1 (Homo sapiens) (P11309 whole entry, looked up): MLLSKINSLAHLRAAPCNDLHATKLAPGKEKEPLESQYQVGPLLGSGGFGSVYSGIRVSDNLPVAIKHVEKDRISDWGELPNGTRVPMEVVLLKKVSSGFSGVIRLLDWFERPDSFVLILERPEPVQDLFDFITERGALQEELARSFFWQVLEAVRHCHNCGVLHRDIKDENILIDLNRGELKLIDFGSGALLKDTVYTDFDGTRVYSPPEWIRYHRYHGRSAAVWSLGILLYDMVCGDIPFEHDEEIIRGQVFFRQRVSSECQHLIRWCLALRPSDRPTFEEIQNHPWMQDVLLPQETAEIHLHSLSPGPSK

Cc1ccc(F)cc1-c1nc2[nH]nc(N)c2c2c1CCCC2
Activity [1]: 76%
Activity [2]: 93%
Activity [3]: 124%
Activity [4]: 97%
Activity [5]: 86%
Activity [6]: 86%
Activity [7]: 74%
Activity [8]: 79%
Activity [9]: 93%
Activity [10]: 89%
Activity [11]: 107%
Activity [12]: 63%
Activity [13]: 63%
Activity [14]: 45%
Activity [15]: 77%
Activity [16]: 54%
Activity [17]: 96%
Activity [18]: 71%
Activity [19]: 91%
Activity [20]: 87%
Activity [21]: 4%
Activity [22]: 85%
Activity [23]: 37%
IC50 (Ephrin type-A receptor 4): 4.5 µM
Activity [24]: 76%
